According to patent US7189711B2, “2, 3-benzodiazepine derivatives and pharmaceutical compositions containing the same as the active ingredient” (Egis Gyogyszergyar RT., priority 2000, dated 2007):
Blank lines part the entries; values can stand above or below the compound they belong to.

Columns and labels:
male Wistar rats = experiment: Duration of action in rats as assessed from the decrease in body core temperature (radiotelemetry); format: in vivo; settings: intraperitoneal, mean of 6 animals
Protocol: Duration of Action in Rats as Assessed From the Decrease in Body Core Temperature
One week prior to treatments, 6 male Wistar rats were anaesthetized by administering 60 mg/kg of pentobarbital sodium [sodium 5-ethyl-5-(1-methylbutyl)barbiturate]intraperitoneally. Using sterile surgical procedures, TL11M2C50-PXT or TA10TA-F40 type radiotelemetry transmitters (Data Sciences International, St. Paul, Minn., USA) were implanted into the peritoneal cavity of the animals. The transmitters permitted continuous monitoring of the core body temperature. After implantation, the rats were treated with an antibiotic (benzathine-benzylpenicillin was administered in a dose of 1 ml/kg i.m.). [The chemical name of benzathine-benzylpenicillin: [2S-(2α,5α,6β)]-3,3-dimethyl-7-oxo-6-[(phenoxyacetyl)amino]-4-thia-1-azabicyclo[3.2.0]heptane-2-carboxylic acid]. The animals were housed individually in type 2 plastic rat cages with free access to food and tap water.
The compounds to be examined were dissolved in a mixture of 5 volumes of 5M aqueous hydrochloric acid and 95 volumes of water, then the pH value of the solution was adjusted to 3 by the addition of 1M aqueous sodium hydroxide solution. The solution obtained was administered intraperitoneally in a volume of 10 ml/kg.
Radio signals emitted by the transmitters were detected by RLA1000 or RLA2000 type receivers placed under each cage. Data were collected and saved by a Dataquest IV computerized data acquisition system. The computer was set to sample body temperature for 10 seconds in every second minute. Mean values for 30 min. periods over the whole day were calculated running the “sort utility” of the Dataquest IV system. The upper and lower limits of the evaluating routine were set to exclude biologically improbable values. Individual body temperature curves were averaged for the 6 animals.
Peak effect (PE) was measured as the maximum decrease in body temperature in comparison to the last value prior to treatment (control value). Using the mean values, duration of action (D) of the compounds was determined. This is the time interval from treatment to return of body temperature to the control level.

male NMRI mice = experiment: Neuroprotective effect in magnesium chloride induced global cerebral ischemia in mice; format: in vivo; settings: intraperitoneal, 30 minutes before i.v. saturated magnesium chloride; linear regression over four doses
Protocol: Neuroprotective Effect in Magnesium Chloride Induced Global Cerebral Ischemia in Mice
The examination was carried out on groups consisting of 10 male NMRI mice weighing 20–25 g. The compounds to be examined were dissolved in a mixture of 5 volumes of 5M aqueous hydrochloric acid and 95 volumes of water, then the pH value of the solution was adjusted to 3 by the addition of 1M aqueous sodium hydroxide solution. The solution obtained was administered intraperitoneally in a volume of 10 ml/kg. Each compound was tested at four increasing dose levels, and a further group of animals was treated only with the vehicle (the latter was the control group). 30 minutes after treatment, all mice received an intravenous injection of saturated aqueous magnesium chloride solution in a volume of 5 ml/kg. This injection caused an immediate cardiac arrest and complete cerebral ischemia. The increase in survival time (i.e. the interval between the injection of magnesium chloride and the last observable gasp) was considered as a measure of the neuroprotective effect according to Berga et al. [Berga, P. et al., Synergistic interactions between piracetam and dihydroergocristine in some animal models of cerebral hypoxia and ischaemia, Arzneim. -Forsch., 36, 1314–1320 (1986)]. Percentage changes in survival time were calculated in comparison to that measured in the control group, and, from the values obtained, the dose prolonging survival by 50% (PD50) was calculated by linear regression analysis.

[1] = N-acetylation in rat liver slices (N-acetyl metabolite by HPLC); format: in vitro ADME, Wistar rats; settings: 50 μM compound, 37° C.
Protocol: Reduction of the rate of N-acetylation due to ortho substitution
Liver slices of Wistar rats were incubated in oxigenized Krebs-Ringer solution at 37° C. in the presence of 50 μM of 2,3-benzodiazepine derivative examined. 0.5 ml aliquots were taken at the beginning of the examination, then after 30 and 60 minutes. Plasma proteins were precipitated with perchloric acid and, after alkalization, the 2,3-benzodiazepine derivatives were extracted with chloroform. The chloroform solutions were evaporated to dryness, the residue was dissolved in the corresponding eluent. The 2,3-benzodiazepine derivative used and the N-acetyl metabolite thereof were determined by high pressure liquid chromatography (Beckman System Gold HPLC, C-18 reversed-phase column) using an UV detector (at 240 nm). Different eluents were used for the optimal separation of the compounds. In case of the compound according to Example 1 and the corresponding 1-(4-amino-phenyl) analogue, the eluent consisted of a mixture of 50% of 2 mM heptafluoro-butyric acid, 25% of methanol and 25% of acetonitrile. For the compound according to Example 3 and the corresponding 1-(4-amino-phenyl) analogue, the eluent was a mixture of 50% of 2 mM heptafluorobutyric acid, 20% of methanol and 30% of acetonitrile. For the compound according to Example 4 and the corresponding 1-(4-amino-phenyl) analogue, the eluent consisted of a mixture of 50% of 2 mM heptafluorobutyric acid and 50% of acetonitrile.
The percentage of N-acetyl metabolite content of the sample taken at a certain time was calculated by dividing the hundredfold of the peak area of the metabolite with the sum of the peak areas of the 2,3-benzodiazepine derivative used and the N-acetyl metabolite. The results obtained are shown in Table 1 in which the concentrations determined after 0, 30 and 60 minutes are indicated.

melting point: 169 to 171 °C
Compound: COc1ccc2c(c1)C(c1ccc(N)c(C)c1)=NN(C(C)=O)C(C)C2 (racemic)

melting point: 200 to 205 °C
Compound: CC(=O)N1N=C(c2ccc(N)c(C)c2)c2ccc(Cl)cc2CC1C (racemic)

Compound: CC(=O)N1N=C(c2ccc(N)c(C)c2)c2cc(Cl)ccc2CC1C (racemic) [Example 1, (±)-3-Acetyl-1-(4-amino-3-methylphenyl)-4,5-dihydro-8-chloro-4-methyl-3H-2,3-benzodiazepine]
D (duration of action, time from treatment to return of body temperature to control level) (male Wistar rats): 20 h
PE (peak effect, maximum decrease in body temperature vs. last value prior to treatment) (male Wistar rats): −2.34 Δ° C.
PD50 (dose prolonging survival by 50%) (male NMRI mice): 4.6 mg/kg

Compound: CCC(=O)N1N=C(c2ccc(N)c(C)c2)c2cc(Cl)ccc2CC1C (racemic) [Example 2, (±)-1-(4-Amino-3-methylphenyl)-4,5-dihydro-8-chloro-4-methyl-3-propionyl-3H-2,3-benzodiazepine]
D (duration of action, time from treatment to return of body temperature to control level) (male Wistar rats): 6 h
PE (peak effect, maximum decrease in body temperature vs. last value prior to treatment) (male Wistar rats): −2.04 Δ° C.

melting point: 143 to 144 °C
Compound: CC(=O)N1N=C(c2ccc(N)c(Cl)c2)c2cc(Cl)ccc2CC1C (racemic) [Example 3, (±)-3-Acetyl-1-(4-amino-3-chlorophenyl)-4,5-dihydro-8-chloro-4-methyl-3H-2,3-benzodiazepine]

Compound: CC(=O)N1N=C(c2ccc(N)c(C)c2)c2cc(Cl)c(Cl)cc2CC1C (racemic) [Example 4, (±)-3-Acetyl-1-(4-amino-3-methylphenyl)-4,5-dihydro-7,8-dichloro-4-methyl-3H-2,3-benzodiazepine]
D (duration of action, time from treatment to return of body temperature to control level) (male Wistar rats): 19 h
PE (peak effect, maximum decrease in body temperature vs. last value prior to treatment) (male Wistar rats): −3.09 Δ° C.
PD50 (dose prolonging survival by 50%) (male NMRI mice): 9.0 mg/kg

Compound: CCC(=O)N1N=C(c2ccc(N)c(C)c2)c2cc(Cl)c(Cl)cc2CC1C (racemic) [Example 5, (±)-1-(4-Amino-3-methylphenyl)-4,5-dihydro-7,8-dichloro-4-methyl-3-propionyl-3H-2,3-benzodiazepine]
PD50 (dose prolonging survival by 50%) (male NMRI mice): 12.3 mg/kg

Compound: CC(=O)N1N=C(c2ccc(N)cc2)c2cc(Cl)ccc2CC1C (stereo not shown) [Example 1a, 3-acetyl-1-(4-amino-phenyl)-4,5-dihydro-8-chloro-4-methyl-3H-2,3-benzo-diazepine, reference compound]
PD50 (dose prolonging survival by 50%) (male NMRI mice): 10.4 mg/kg

Compound: CC(=O)N1N=C(c2ccc(N)cc2)c2cc(Cl)ccc2CC1C (stereo not shown) [Example 1a, 3-acetyl-1-(4-amino-phenyl)-4,5-dihydro-8-chloro-4-methyl-3H-2,3-benzo-diazepine]
Amount of N-acetyl metabolite in % ([1]; incubation time 0 min): 0%
Amount of N-acetyl metabolite in % ([1]; incubation time 30 min): 18%
Amount of N-acetyl metabolite in % ([1]; incubation time 60 min): 31%

Compound: CCC(=O)N1N=C(c2ccc(N)cc2)c2cc(Cl)ccc2CC1C (stereo not shown) [Example 2a, 1-(4-aminophenyl)-4,5-dihydro-8-chloro-4-methyl-3-propionyl-3H-2,3-benzo-diazepine, reference compound]
D (duration of action, time from treatment to return of body temperature to control level) (male Wistar rats): 4 h
PE (peak effect, maximum decrease in body temperature vs. last value prior to treatment) (male Wistar rats): −1.87 Δ° C.

Compound: CC(=O)N1N=C(c2ccc(N)cc2)c2cc(Cl)c(Cl)cc2CC1C (stereo not shown) [Example 4a, 3-acetyl-1-(4-amino-phenyl)-4,5-dihydro-7,8-dichloro-4-methyl-3H-2,3-benzo-diazepine, reference compound]
D (duration of action, time from treatment to return of body temperature to control level) (male Wistar rats): 3.5 h
PE (peak effect, maximum decrease in body temperature vs. last value prior to treatment) (male Wistar rats): −1.72 Δ° C.
PD50 (dose prolonging survival by 50%) (male NMRI mice): 11.0 mg/kg

Compound: CCC(=O)N1N=C(c2ccc(N)cc2)c2cc(Cl)c(Cl)cc2CC1C (stereo not shown) [Example 5a, 1-(4-aminophenyl)-4,5-dihydro-7,8-dichloro-4-methyl-3-propionyl-3H-2,3-benzo-diazepine, reference compound]
PD50 (dose prolonging survival by 50%) (male NMRI mice): 14.6 mg/kg
